The molecules below were run on luciferase reporter construct containing a UGA premature termination codon (assay: cell-based luciferase reporter assay (nonsense suppression / readthrough)). Conditions: ranking combining potency and efficacy of protein synthesis; UGA luciferase reporter stably transfected in 293T Human Embryonic Kidney cells.
Design: key: *****: both extremely high potency and extremely high efficacy of protein synthesis; ****: extremely high potency of protein synthesis and very high efficacy; ****: very high potency of protein synthesis and extremely high efficacy; ***: both very high potency and very high efficacy of protein synthesis; **: very high potency of protein synthesis and significant efficacy; **: significant potency of protein synthesis and very high efficacy; *: significant potency and efficacy of protein synthesis
Procedure: Activity measurements in Table I were performed in a cell-based luciferase reporter assay (as described in Section 4.2) comprising a luciferase reporter construct containing a UGA premature termination codon that was stably transfected in 293T Human Embryonic Kidney cells. A small molecule (3-[3-(4-Isopropyl-phenyl)-2,5-dioxoimidazolidin-1-yl]-benzoic acid) known to allow readthrough of premature termination codons, was used as an internal standard. Activity measurements are based on the qualitative relation between the minimum concentration of compound required to produce a given protein in a cell (potency) and the maximum amount of protein produced by the cell (efficacy). Potency and efficacy activities are ranked as either extremely high, very high or significant.
The test compounds identified in the nonsense suppression assay (for convenience referred to herein as a “lead” compound) can be tested for biological activity using host cells containing or engineered to contain the target RNA element coupled to a functional readout system. For example, the lead compound can be tested in a host cell engineered to contain the RNA with the premature translation termination codon controlling the expression of a reporter gene. In this example, the lead compounds are assayed in the presence or absence of the RNA with the premature translation termination codon. Compounds that modulate premature translation termination and/or nonsense-mediated mRNA decay in vivo will result in increased expression of the full-length gene, i.e., past the premature termination codon. Alternatively, a phenotypic or physiological readout can be used to assess activity of the target RNA with the premature translation termination codon in the presence and absence of the lead compound. Both the in vitro and in vivo nonsense suppression assays used herein and as described in International Patent Publication WO 01/44516, which is incorporated by reference in its entirety, can be used to identify lead compounds can also be used to determine an EC50 for the lead compounds.
A stable cell line harboring the […] nonsense-containing luciferase gene is treated with a test compound. Cells are grown in standard medium supplemented with 1% penicillin-streptomycin (P/S) and 10% fetal bovine serum (FBS) to 70% confluency and split 1:1 the day before treatment. The next day, cells are trypsinized and 40,000 cells are added to each well of a 96-well tissue culture dish. Serial dilutions of each compound are prepared to generate a six-point dose response curve spanning 2 logs ([…]). The final concentration of the DMSO solvent remains constant at 1% in each well. Cells treated with 1% DMSO serve as the background standard, and cells treated with gentamicin serve as a positive control.

Compound | Activity
CC(C)c1ccc(N2CCN(c3cccc(C(=O)O)c3)C2=S)cc1 [Compound 60, 3-[3-(4-Isopropyl-phenyl)-2-thioxo-imidazolidin-1-yl]-benzoic acid] | ****
CCOC(=O)c1ccc(N2C(=O)CN(c3cccc(C(=O)O)c3)C2=O)cc1 [Compound 17, 3-[3-(4-formyl-ethylester-phenyl)-2,4-dioxo-imidazolidin-1-yl]-benzoic acid] | *
CC(C)Oc1ccc(N2CCN(c3cccc(C(=O)O)c3)C2=O)cc1 [Compound 40, 3-[3-(4-Isopropoxy-phenyl)-2-oxo-imidazolidin-1-yl]-benzoic acid] | *****
Cc1ccc(C(=O)O)cc1N1CCN(c2ccc(C(F)(F)F)cc2)C1=O [Compound 80, 4-Methyl-3-[2-oxo-3-(4-trifluoromethyl-phenyl)-imidazolidin-1-yl]-benzoic acid] | *
CC(C)(C)c1ccc(NC(=O)Nc2cccc(C(=O)O)c2)cc1 [Compound 33, 3-[3-(4-tert-Butylphenyl)-ureido]-benzoic acid] | **
O=C(O)c1cccc(N2C(=O)CN(c3ccc(Cc4ccccc4)cc3)C2=O)c1 [Compound 16, 3-[3-(4-benzyl-phenyl)-2,5-dioxo-imidazolidin-1-yl]-benzoic acid] | *
O=C(O)c1cccc(N2CCN(c3ccc(OC(F)F)cc3)C2=O)c1 [Compound 39, 3-[3-(4-Difluoromethoxy-phenyl)-2-oxo-imidazolidin-1-yl]-benzoic acid] | *****
Cc1ccc(N2CCN(c3cccc(C(=O)O)c3)C2=O)cc1 [Compound 48, 3-(2-Oxo-3-p-tolyl-imidazolidin-1-yl)-benzoic acid] | *****
O=C(O)c1ccc(F)c(N2CCN(c3ccc(C(F)(F)F)cc3)C2=O)c1 [Compound 55, 4-Fluoro-3-[2-oxo-3-(4-trifluoromethyl-phenyl)-imidazolidin-1-yl]-benzoic acid] | *
O=C(O)c1cccc(N2CCN(c3ccc(F)cc3)C2=O)c1 [Compound 70, 3-[3-(4-Fluoro-phenyl)-2-oxo-imidazolidin-1-yl]-benzoic acid] | *****
O=C(O)c1cccc(N2C(=O)CN(c3ccc(-c4ccccc4)cc3)C2=O)c1 [Compound 2] | ***
O=C(O)c1cccc(N2C(=O)CN(c3ccc(I)cc3)C2=O)c1 [Compound 23, 3-[3-(4-iodo-phenyl)-2,5-dioxo-imidazolidin-1-yl]-benzoic acid] | ***
O=C(O)c1cccc(N2C(=O)CN(Cc3ccccc3Cl)C2=O)c1 [Compound 5, 3-[3-(2-chloro-benzyl)-2,5-dioxo-imidazolidin-1-yl]-benzoic acid] | ***
O=C(O)c1cccc(N2CCN(c3ccc(F)cc3F)C2=O)c1 [Compound 75, 3-[3-(2,4-Difluoro-phenyl)-2-oxo-imidazolidin-1-yl]-benzoic acid] | *
O=C(O)c1cccc(N2CCN(c3ccc(F)c(C(F)(F)F)c3)C2=O)c1 [Compound 63, 3-[3-(4-Fluoro-3-trifluoromethyl-phenyl)-2-oxo-imidazolidin-1-yl]-benzoic acid] | ****
O=C(O)c1cccc(N2CCN(c3ccc4c(c3)OCCO4)C2=O)c1 [Compound 42, 3-[3-(2,3-Dihydro-benzo[1,4]dioxin-6-yl)-2-oxo-imidazolidin-1-yl]-benzoic acid] | *****
O=C(O)c1cccc(N2CCN(c3ccc(N4CCC(N5CCCCC5)CC4)cc3)C2=O)c1 [Compound 81, 3-[3-(4-[1,4′]Bipiperidinyl-1′-yl-phenyl)-2-oxo-imidazolidin-1-yl]-benzoic acid] | *
O=C(O)c1cccc(N2C(=O)CN(c3ccc(OC(F)(F)F)cc3)C2=O)c1 [Compound 30, 3-[2,5-Dioxo-3-(4-trifluoromethoxy-phenyl)-imidazolidin-1-yl]-benzoic acid] | *
COc1cccc(N2C(=O)CN(c3cccc(C(=O)O)c3)C2=O)c1 [Compound 11, 3-[3-(3-methoxy-phenyl)-2,4-dioxo-imidazolidin-1-yl]-benzoic acid] | *

Compound | Activity
O=C(O)c1cccc(N2C(=O)CN(c3ccc(Oc4ccccc4)cc3)C2=O)c1 [Compound 3, 3-[2,5-dioxo-3-(4-phenoxy-phenyl)-imidazolidin-1-yl]-benzoic acid] | **
O=C(O)c1cccc(N2CCN(c3ccsc3)C2=O)c1 [Compound 74, 3-(2-Oxo-3-thiophen-3-yl-imidazolidin-1-yl)-benzoic acid] | ****
Cc1ccc(N2CC(=O)N(c3cccc(C(=O)O)c3)C2=O)cc1 [Compound 26, 3-(2,5-Dioxo-3-p-tolylimidazolidin-1-yl)-benzoic acid] | *
O=C(O)c1cccc(N2CCN(c3ccc(OCC(=O)N4CCOCC4)cc3)C2=O)c1 [Compound 77, 3-{3-[4-(2-Morpholin-4-yl-2-oxo-ethoxy)-phenyl]-2-oxo-imidazolidin-1-yl}-benzoic acid] | *
O=C(O)c1cccc(N2CC(=O)N(c3cccc(Cl)c3Cl)C2=O)c1 [Compound 24, 3-[3-(2,3-dichloro-phenyl)-2,4-dioxo-imidazolidin-1yl]-benzoic acid] | *
CN(C)c1ccc(N2CCN(c3cccc(C(=O)O)c3)C2=O)cc1 [Compound 47, 3-[3-(4-Dimethylamino-phenyl)-2-oxo-imidazolidin-1-yl]-benzoic acid] | *****
O=C(O)c1cccc(N2CCN(c3ccccc3F)C2=O)c1 [Compound 68, 3-[3-(2-Fluoro-phenyl)-2-oxo-imidazolidin-1-yl]-benzoic acid] | ***
O=C(O)c1cccc(N2CCN(c3ccc(N4CCN(c5ccccc5)CC4)cc3)C2=O)c1 [Compound 56, 3-{2-Oxo-3-[4-(4-phenyl-piperazin-1-yl)-phenyl]-imidazolidin-1-yl}-benzoic acid] | *
CC(C)c1ccc(N2CCCN(c3cccc(C(=O)O)c3)S2(=O)=O)cc1 [Compound 7, 3-[6-(4-isopropyl-phenyl)-1,1-dioxo-1l6-[1,2,6]-thiadiazinan-2-yl]-benzoic acid] | *
COC(=O)c1ccc(N2CC(=O)N(c3cccc(C(=O)O)c3)C2=O)cc1 [Compound 25, 3-[3-(4-methoxycarbonylphenyl)-2,5-dioxoimidazolidin-1-yl]-benzoic acid] | *
O=C(O)c1cccc(N2CCN(c3ccc(C(F)(F)F)cc3)C2=O)c1 [Compound 45, 3-[2-Oxo-3-(4-trifluoromethyl-phenyl)-imidazolidin-1-yl]-benzoic acid] | *****
O=C(O)c1cccc(N2CCN(c3ccc(N4CCCC4)cc3)C2=O)c1 [Compound 44, 3-[2-Oxo-3-(4-pyrrolidin-1-yl-phenyl)-imidazolidin-1-yl]-benzoic acid] | ****
CC(C)c1ccc(N2C(=O)CN(c3cccc(C(=O)O)c3)C2=O)cc1 [Compound 9, 3-[3-(4-isopropyl-phenyl)-2,4-dioxo-imidazolidin-1-yl]-benzoic acid] | **
O=C(O)c1cccc(N2CC(=O)N(c3ccccc3F)C2=O)c1 [Compound 10, 3-[3-(2-fluoro-phenyl)-2,4-dioxo-imidazolidin-1-yl]-benzoic acid] | *
O=C(NCc1ccc(Br)cc1)Nc1cccc(C(=O)O)c1 [Compound 20, 3-[3-(4-bromo-benzyl)-ureido]-benzoic acid] | *
CC(C)(C)c1ccc(N2CC(=O)N(c3cccc(C(=O)O)c3)C2=O)cc1 [Compound 28, 3-[3-(4-tert-Butylphenyl)-2,5-dioxoimidazolidin-1-yl]-benzoic acid] | **
CC(C)c1ccc(N2CCN(c3cccc(C(=O)O)c3)S2(=O)=O)cc1 [Compound 15, 3-[5-(4-isopropyl-phenyl)-1,1-dioxo-1l6-[1,2,5]-thiadiazolidin-2-yl]-benzoic acid] | **
O=C(O)c1cccc(N2C(=O)CN(CC3CCCO3)C2=O)c1 (centres unmarked) [Compound 13, 3-[2,5-dioxo-3-(tetrahydro-furan-2-ylmeethyl)-imidazolidin-1-yl]-benzoic acid] | *
CN1CCN(C(=O)COc2ccc(N3CCN(c4cccc(C(=O)O)c4)C3=O)cc2)CC1 [Compound 78, 3-(3-{4-[2-(4-Methyl-piperazin-1-yl)-2-oxo-ethoxy]-phenyl}-2-oxo-imidazolidin-1-yl)-benzoic acid] | *
